Assay results from US8168651B2, “Protein kinase modulators” (Cylene Pharmaceuticals, Inc., priority 2008, dated 2012).
pIC50: −log10 of the molar value. Like-named read-outs stand apart in the source and are kept apart here.

Assays:
[1] = molecular target: recombinant human PIM1 (Homo sapiens (Human), UniProt P11309); assay: PIM-1 kinase activity in cell-free in vitro assay; type: biochemical; settings: for inhibition at 0.5 µM: 500 nM compound, read-out: PIM-1: % inh 500 nM
[2] = system: K-562; assay: Cell proliferation modulatory activity, K-562; type: cell-based; settings: Homo sapiens, K562
[3] = system: HCT-116 human colorectal carcinoma cells; assay: Cell-proliferation assay using Alamar Blue dye; type: cell-based; settings: Homo sapiens;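 also: cells exposed to compound for about 4 days, then Alamar Blue added and dye fluorescence read after about 4 h, compared with medium-only control wells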
[4] = system: Jurkat; assay: Cell proliferation modulatory activity, Jurkat; type: cell-based; settings: Homo sapiens
[5] = system: MV-4-11; assay: Cell proliferation modulatory activity, MV-4-11; type: cell-based; settings: Homo sapiens, MV4-11
[6] = system: K-562; assay: Cell proliferation modulatory activity, K-562; type: cell-based; settings: Homo sapiens, K562; remark: listed apart in the source
[7] = molecular target: Flt3 (Homo sapiens (Human), UniProt P36888); assay: FLT-3 kinase activity in cell free in vitro assay; type: biochemical; settings: cell-free assay; for pIC50: read-out: FLT-3; for IC50: read-out: FLT-3 (uM) IC50
Sequence of Flt3 (P36888 27-993): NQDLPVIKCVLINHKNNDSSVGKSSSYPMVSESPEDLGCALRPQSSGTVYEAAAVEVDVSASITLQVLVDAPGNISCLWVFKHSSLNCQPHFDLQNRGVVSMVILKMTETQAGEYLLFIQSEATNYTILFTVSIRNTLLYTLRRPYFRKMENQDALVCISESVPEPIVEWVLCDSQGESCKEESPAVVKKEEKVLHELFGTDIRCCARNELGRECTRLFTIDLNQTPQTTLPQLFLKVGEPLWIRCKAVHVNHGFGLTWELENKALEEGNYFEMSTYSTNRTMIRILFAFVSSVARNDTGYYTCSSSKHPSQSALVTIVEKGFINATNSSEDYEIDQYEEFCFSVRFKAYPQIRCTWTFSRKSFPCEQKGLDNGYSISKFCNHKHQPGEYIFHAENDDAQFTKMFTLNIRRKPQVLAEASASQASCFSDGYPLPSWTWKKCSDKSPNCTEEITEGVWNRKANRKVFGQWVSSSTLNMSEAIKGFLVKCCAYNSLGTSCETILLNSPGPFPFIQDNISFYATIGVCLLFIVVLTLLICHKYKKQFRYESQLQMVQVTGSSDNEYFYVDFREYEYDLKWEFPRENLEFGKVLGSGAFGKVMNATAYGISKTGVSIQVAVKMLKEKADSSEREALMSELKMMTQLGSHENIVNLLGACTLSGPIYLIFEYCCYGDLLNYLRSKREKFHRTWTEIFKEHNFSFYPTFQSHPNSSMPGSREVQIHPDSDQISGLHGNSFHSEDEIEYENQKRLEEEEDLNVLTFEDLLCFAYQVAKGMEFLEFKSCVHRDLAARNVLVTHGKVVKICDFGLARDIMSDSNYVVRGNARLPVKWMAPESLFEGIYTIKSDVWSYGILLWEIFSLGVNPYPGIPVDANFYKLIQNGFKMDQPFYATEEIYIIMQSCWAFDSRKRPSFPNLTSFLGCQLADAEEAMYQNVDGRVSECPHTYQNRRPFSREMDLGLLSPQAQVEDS

[8] = molecular target: recombinant human CK2 (Homo sapiens (Human), UniProt P68400); assay: CK2 assay (cell-free, 33P-ATP filter plate); type: biochemical; settings: cell-free assay; for pIC50: 15 um ATP, read-out: CK2 (15 um ATP) IC50; for inhibition at 0.5 µM: 500 nM compound, read-out: CK2: % inh 500 nM
Sequence of recombinant human CK2 (P68400 whole entry): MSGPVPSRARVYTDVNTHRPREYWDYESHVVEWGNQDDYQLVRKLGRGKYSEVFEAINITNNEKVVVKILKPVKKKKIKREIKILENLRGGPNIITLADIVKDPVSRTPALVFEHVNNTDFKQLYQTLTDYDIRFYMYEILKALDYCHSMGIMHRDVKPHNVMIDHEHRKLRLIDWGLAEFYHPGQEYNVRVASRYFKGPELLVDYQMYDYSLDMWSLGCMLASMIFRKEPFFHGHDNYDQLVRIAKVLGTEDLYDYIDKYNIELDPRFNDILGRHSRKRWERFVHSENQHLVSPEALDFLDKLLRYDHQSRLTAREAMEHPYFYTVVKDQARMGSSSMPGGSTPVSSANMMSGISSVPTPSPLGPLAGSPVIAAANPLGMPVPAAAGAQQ
Sequence of recombinant human CK2 (P67870 whole entry partner): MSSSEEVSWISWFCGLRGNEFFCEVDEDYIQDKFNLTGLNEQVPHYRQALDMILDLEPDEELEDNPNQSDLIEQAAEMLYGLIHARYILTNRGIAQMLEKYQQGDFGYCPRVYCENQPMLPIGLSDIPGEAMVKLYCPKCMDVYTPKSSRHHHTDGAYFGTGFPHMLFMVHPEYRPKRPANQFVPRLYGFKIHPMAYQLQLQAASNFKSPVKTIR

[9] = system: MV-4-11; assay: Cell proliferation modulatory activity, MV-4-11; type: cell-based; settings: Homo sapiens, MV4-11; MV-4-11 cells
[10] = system: K-562; assay: Cell proliferation modulatory activity, K-562; type: cell-based; settings: Homo sapiens, K562; K-562 cells
[11] = HCT-116, read-out: HCT-116 (uM), cell proliferation modulatory activity, HCT-116, second column
[12] = HCT-116, read-out: HCT-116 (uM), cell proliferation modulatory activity, HCT-116, second HCT-116 column (c8)
[13] = HCT-116, HCT-116, second HCT-116 column (c8), read-out: HCT-116 (uM), cell proliferation modulatory activity
[14] = HCT-116, second HCT-116 column (c8), read-out: HCT-116 (uM) cell proliferation modulatory activity

Sequence of recombinant human PIM1 (P11309 whole entry): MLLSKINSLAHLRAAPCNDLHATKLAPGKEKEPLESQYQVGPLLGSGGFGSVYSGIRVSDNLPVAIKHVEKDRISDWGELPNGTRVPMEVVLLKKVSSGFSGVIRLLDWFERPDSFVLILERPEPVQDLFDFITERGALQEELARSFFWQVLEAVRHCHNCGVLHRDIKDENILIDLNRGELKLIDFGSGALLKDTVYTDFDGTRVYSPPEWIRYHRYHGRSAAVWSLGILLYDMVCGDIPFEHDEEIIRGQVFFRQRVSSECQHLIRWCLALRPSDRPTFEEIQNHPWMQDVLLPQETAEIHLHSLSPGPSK

Row | SMILES | inhibition at 0.5 µM ([1]; cell-free assay) [%] | IC50 [4] [µM] | IC50 [5] [µM] | IC50 [6] [µM] | IC50 [3, 13] [µM] | inhibition at 0.5 µM [8] [%] | also measured
1 | O=C(O)c1ccc2c(c1)nc(Nc1cccc(F)c1)c1ncncc12 |  |  |  |  |  |  | inhibition at 0.5 µM ([1]; cell-free): 77.8%; pIC50 ([1]; cell-free): 6.44; IC50 [2]: 1.77 µM; IC50 [3, 11]: 7.1 µM
2 | O=C(O)c1ccc2c(c1)nc(Nc1ccccc1)c1nc(NC3CC3)ncc12 | 18.4 | 2.42 | 0.195 | 0.494 |  |  | IC50 [3, 12]: 1.94 µM
3 | O=C(O)c1ccc2c(c1)nc(Nc1ccccc1)c1nc(NCCN3CCOCC3)ncc12 | 30.6 | 5.7 | 0.358 | 1.16 |  |  | 
4 | O=C(O)c1ccc2c(c1)nc(Nc1cccc(Cl)c1)c1nc(NC3CC3)ncc12 |  | 1.29 | 0.257 | 0.158 |  |  | IC50 [3, 12]: 7.82 µM
5 | CNc1ncc2c(n1)c(Nc1ccc(F)c(Cl)c1)nc1cc(C(=O)O)ccc12 | 18.6 | 1.24 | 0.655 | > 10 |  |  | 
6 | O=C(O)c1ccc2c(c1)nc(Nc1ccc(F)c(Cl)c1)c1nc(NC3CC3)ncc12 | 6.63 | 1.54 | > 10 | > 10 |  |  | 
7 | C#Cc1cccc(Nc2nc3cc(C(=O)O)ccc3c3cnc(NCCOCC)nc23)c1 | 12.1 | 1.13 | 0.141 | > 10 |  |  | 
8 | O=C(NC1CC1)c1ccc2c(c1)nc(NC1CC1)c1nc(NC3CC3)ncc12 | -11.9 | 0.436 | 0.497 | > 10 | 0.818 |  | pIC50 [8]: < 6.12
9 | O=C(NCc1ccncc1)c1ccc2c(c1)nc(Nc1cccc(Cl)c1)c1ccncc12 | -12.8 |  | 0.181 | > 10 | 2.5 |  | pIC50 [7]: < 6.40
10 | O=C(NCCN1CCOCC1)c1ccc2c(c1)nc(Nc1cccc(Cl)c1)c1ccncc12 | 1.16 |  | 0.099 | > 10 | > 10 |  | pIC50 [7]: < 6.40
11 | C#Cc1cccc(Nc2nc3cc(C(=O)N(C)C)ccc3c3cncnc23)c1 | -27.8 | 1.18 | 4.62 | 9.79 | 0.545 |  | 
12 | O=C(O)c1ccc2c(c1)nc(NC1CC1)c1nc(Nc3ccc(F)cc3F)ncc12 |  |  | 2.29 | > 10 | > 10 |  | 
13 | O=C(O)c1ccc2c(c1)nc(NC1CC1)c1nc(Nc3ccc(F)c(F)c3)ncc12 | 14.1 |  | 1.86 | > 10 | > 10 | 96.3 | 
14 | Cc1cnc(CNC(=O)c2ccc3c(c2)nc(N2CCN(C)CC2)c2ccsc23)cn1 | 37.3 |  | > 10 | > 10 | > 10 | -15 | 
15 | O=C(O)c1ccc2c(c1)nc(N1CCC(N3CCOCC3)CC1)c1ccncc12 | 20.7 |  | > 10 | > 10 | > 10 | 90.5 | pIC50 ([1]; cell-free assay): 6.51
16 | O=C(O)c1ccc2c(c1)nc(Nc1ccc(Br)cc1F)c1ccncc12 |  |  |  |  |  |  | pIC50 ([1]; cell-free assay): 6.47; IC50 [9]: 7.26 µM; IC50 [10]: > 10 µM; IC50 [7]: 0.087 µM; IC50 [3, 14]: > 10 µM
17 | Clc1cccc(Nc2nc3cc(-c4nnco4)ccc3c3cnccc23)c1 | -0.614 |  |  |  |  | 29.9 | IC50 [9]: 0.501 µM; IC50 [10]: > 10 µM; IC50 [7]: 0.236 µM; IC50 [3, 14]: 5.17 µM
18 | Clc1cccc(Nc2nc3cc(-c4nnc[nH]4)ccc3c3cnccc23)c1 | -19.3 |  |  |  |  | -2.18 | IC50 [9]: 1.06 µM; IC50 [10]: 0.546 µM; IC50 [7]: 0.09 µM; IC50 [3, 14]: > 10 µM
19 | O=C(O)c1ccc2c(c1)nc(NCCc1cccc(Cl)c1)c1ccncc12 [drawing 1559] |  |  |  |  |  |  | inhibition at 0.5 µM ([1]; cell-free): 43.1%; pIC50 ([1]; cell-free): 5.98; IC50 [2]: 9.18 µM; IC50 [3, 11]: > 10 µM
20 | O=C(O)c1ccc2c(c1)nc(NCCCc1ccccc1)c1ccncc12 [drawing 1561] |  |  |  |  |  |  | inhibition at 0.5 µM ([1]; cell-free): 69.7%; pIC50 ([1]; cell-free): 6.36; IC50 [2]: 7.17 µM; IC50 [3, 11]: > 10 µM
21 | O=C(O)c1ccc2c(c1)nc(Nc1cccc(C(F)(F)F)c1)c1nc(NC3CC3)ncc12 [drawing 1596] | -17.3 | 3.13 |  |  |  |  | pIC50 [7]: < 6.40
22 | C#Cc1cccc(Nc2nc3cc(C(=O)O)ccc3c3cnc(NCC4CCCO4)nc23)c1 (stereo not drawn) [drawing 1605] | 1.48 | 2.04 | 0.284 | > 10 |  |  | IC50 [3, 12]: > 10 µM
23 | C#Cc1cccc(Nc2nc3cc(C(=O)O)ccc3c3cnc(NCC4CC4)nc23)c1 [drawing 1606] | 3.08 | 0.424 | 0.128 | 0.25 |  |  | IC50 [3, 12]: > 10 µM

Now from value to compound, other results behind:

Row | inhibition at 0.5 µM ([1]; cell-free assay) [%] | IC50 [4] [µM] | IC50 [5] [µM] | IC50 [6] [µM] | IC50 [3, 13] [µM] | inhibition at 0.5 µM [8] [%] | SMILES | also measured
24 | 73.6 | 3.05 | > 10 | > 10 |  |  | O=C(O)c1ccc2c(c1)nc(Nc1ccc(Cl)c(C(F)(F)F)c1)c1ccncc12 | pIC50 ([1]; cell-free assay): 6.39; IC50 [3, 12]: 3.99 µM
25 | 86.7 | 3.45 | 0.593 | > 10 |  |  | Cc1cccc(Nc2nc3cc(C(=O)O)ccc3c3cnccc23)c1 | pIC50 ([1]; cell-free assay): 6.75
26 | 88.8 | 3.15 | 0.354 | > 10 |  |  | O=C(O)c1ccc2c(c1)nc(Nc1cccc(C(F)(F)F)c1)c1ccncc12 | pIC50 ([1]; cell-free assay): 6.80; IC50 [3, 12]: 5.14 µM
27 | -39.8 | 13.7 |  | > 10 | > 10 |  | CNC(=O)c1ccc2c(c1)nc(Nc1cccc(Cl)c1)c1ccncc12 | pIC50 [7]: < 6.40; pIC50 [8]: < 6.12
28 | -0.772 |  | 0.069 | > 10 | > 10 |  | O=C(Nc1ccccc1)c1ccc2c(c1)nc(Nc1cccc(Cl)c1)c1ccncc12 | pIC50 [7]: < 6.40
29 | -11.1 |  | > 10 | > 10 | 9.88 |  | O=C(NCc1ccccn1)c1ccc2c(c1)nc(Nc1cccc(Cl)c1)c1ccncc12 | pIC50 [7]: 6.54
30 | -8.95 |  | > 10 | > 10 | > 10 | 96.1 | O=C(O)c1ccc2c(c1)nc(NCCc1ccccn1)c1ccncc12 | 
31 | 14.3 |  | > 10 | > 10 | > 10 | 96.6 | O=C(O)c1ccc2c(c1)nc(NCc1ccccn1)c1ccncc12 | 
32 | 9.85 |  | > 10 | > 10 | > 10 | 99 | COc1ccc(CCNc2nc3cc(C(=O)O)ccc3c3cnccc23)cc1OC | 
33 | 92.3 | 15.7 | 0.985 | > 10 | > 10 |  | Cc1ccccc1Nc1nc2cc(C(=O)O)ccc2c2cnccc12 | pIC50 ([1]; cell-free assay): 6.80
34 | -22.8 |  |  |  |  | -42.8 | Clc1cccc(Nc2nc3ccccc3c3cnccc23)c1 | IC50 [9]: 2.82 µM; IC50 [10]: > 10 µM; IC50 [7]: 0.344 µM; IC50 [3, 14]: > 10 µM
35 | 11.9 |  |  |  |  | 67.8 | O=C(O)c1ccc2nc(Nc3cccc(Cl)c3)c3ccncc3c2c1 | IC50 [9]: > 10 µM; IC50 [10]: > 10 µM; IC50 [7]: > 0.4 µM; IC50 [3, 14]: > 10 µM
36 | 101 |  |  |  |  | 98.7 | O=C(O)c1ccc2c(c1)nc(Nc1cc(F)cc(Cl)c1)c1ccncc12 | pIC50 ([1]; cell-free assay): 7.12; IC50 [9]: 0.25 µM; IC50 [10]: 1.56 µM; IC50 [7]: 0.031 µM; IC50 [3, 14]: > 10 µM
37 | 71.5 |  |  |  |  | -9.32 | O=C(O)c1ccc2c(c1)nc(Nc1cccc(Cl)c1)c1cnccc12 | pIC50 ([1]; cell-free assay): 6.91; IC50 [9]: > 10 µM; IC50 [10]: > 10 µM; IC50 [7]: > 0.4 µM; IC50 [3, 14]: > 10 µM
38 | -9.45 |  |  |  |  | 66.1 | NC(=O)c1ccc2c(c1)nc(Nc1ccc(F)c(Cl)c1)c1ccncc12 | IC50 [9]: 0.373 µM; IC50 [10]: > 10 µM; IC50 [7]: 0.167 µM; IC50 [3, 14]: > 10 µM
39 | -10.8 |  |  |  |  | 34.9 | NNC(=O)c1ccc2c(c1)nc(Nc1cccc(Cl)c1)c1ccncc12 | IC50 [9]: 2.14 µM; IC50 [10]: > 10 µM; IC50 [7]: 0.075 µM; IC50 [3, 14]: > 10 µM
40 | 5.67 |  |  |  |  | 55.9 | NC(=O)c1ccc2c(c1)nc(Nc1cc(F)cc(Cl)c1)c1ccncc12 | IC50 [9]: 0.222 µM; IC50 [10]: > 10 µM; IC50 [7]: 0.012 µM
41 | 1.09 |  |  |  |  | 34.4 | NC(=O)c1ccc2c(c1)nc(Nc1cccc(C(F)(F)F)c1)c1ccncc12 | IC50 [9]: 0.12 µM; IC50 [10]: 2.46 µM; IC50 [7]: 0.006 µM; IC50 [3, 14]: 4.28 µM
42 | -15.6 |  |  |  |  | 14.2 | CONC(=O)c1ccc2c(c1)nc(Nc1cccc(Cl)c1)c1ccncc12 | IC50 [9]: 0.691 µM; IC50 [10]: 2.61 µM; IC50 [7]: > 0.4 µM; IC50 [3, 14]: 4.54 µM
